Reference: ChEMBL document CHEMBL3297730, “Identification of 2,3-disubstituted pyridines as potent, non-emetic PDE4 inhibitors” (Bioorg Med Chem Lett, 2014)
One block for each compound: values may come before it.

Columns and labels:
[1] = species: Cavia porcellus; experiment: Inhibition of Hartley guinea pig PDE4 assessed as hydrolization of cAMP by measuring [3H]cAMP at 100 nM by radioisotope method
[2] = system: Mus musculus; experiment: Inhibition of eosinophil infiltration in ovalbumin-sensitized mouse at 10 mg/kg, po qd for 2 days administered 30 mins prior to ovalbumin challenge relative to vehicle-treated control; assay type: functional
[3] = system: Cavia porcellus; experiment: Induction of bronchodilation in ovalbumin-sensitized guinea pig at 10 mg/kg, po administered 1 hr prior to ovalbumin challenge measured for 20 mins relative to vehicle-treated control; assay type: functional
[4] = system: Mustela putorius furo; experiment: Toxicity in Marshall ferret assessed as vomiting at 30 mg/kg, po after 2 hrs; assay type: organism-based; design: dose 30 mg/kg, route oral; conditions: in vivo
[5] = system: Mustela putorius furo; experiment: Toxicity in po dosed Marshall ferret assessed as vomiting; assay type: organism-based; conditions: in vivo
[6] = Drug level in ovalbumin-sensitized guinea pig lung treated with [14C]-2-(3-chlorophenoxy)-3-[3-(3-hydroxypyridin-4-yl)propoxy]pyridine at 10 mg/kg, po after 4 hrs; assay type: ADME, organism-based, Cavia porcellus; design: dose 10 mg/kg, route oral; conditions: in vivo
[7] = Drug level in ovalbumin-sensitized guinea pig plasma treated with [14C]-2-(3-chlorophenoxy)-3-[3-(3-hydroxypyridin-4-yl)propoxy]pyridine at 10 mg/kg, po after 0.5 hrs; assay type: ADME, organism-based, Cavia porcellus; design: dose 10 mg/kg, route oral; conditions: in vivo
[8] = Drug level in ovalbumin-sensitized guinea pig trachea treated with [14C]-2-(3-chlorophenoxy)-3-[3-(3-hydroxypyridin-4-yl)propoxy]pyridine at 10 mg/kg, po after 4 hrs; assay type: ADME, organism-based, Cavia porcellus; design: dose 10 mg/kg, route oral; conditions: in vivo
[9] = Drug level in ovalbumin-sensitized guinea pig lung treated with [14C]-2-(3-chlorophenoxy)-3-[3-(3-hydroxypyridin-4-yl)propoxy]pyridine at 10 mg/kg, po after 0.5 hrs; assay type: ADME, organism-based, Cavia porcellus; design: dose 10 mg/kg, route oral; conditions: in vivo
[10] = Drug level in ovalbumin-sensitized guinea pig lung treated with [14C]-2-(3-chlorophenoxy)-3-[3-(3-hydroxypyridin-4-yl)propoxy]pyridine at 10 mg/kg, po after 2 hrs; assay type: ADME, organism-based, Cavia porcellus; design: dose 10 mg/kg, route oral; conditions: in vivo
[11] = Drug level in ovalbumin-sensitized guinea pig plasma treated with [14C]-2-(3-chlorophenoxy)-3-[3-(3-hydroxypyridin-4-yl)propoxy]pyridine at 10 mg/kg, po after 2 hrs; assay type: ADME, organism-based, Cavia porcellus; design: dose 10 mg/kg, route oral; conditions: in vivo
[12] = Drug level in ovalbumin-sensitized guinea pig trachea treated with [14C]-2-(3-chlorophenoxy)-3-[3-(3-hydroxypyridin-4-yl)propoxy]pyridine at 10 mg/kg, po after 2 hrs; assay type: ADME, organism-based, Cavia porcellus; design: dose 10 mg/kg, route oral; conditions: in vivo
[13] = Drug level in ovalbumin-sensitized guinea pig trachea treated with [14C]-2-(3-chlorophenoxy)-3-[3-(3-hydroxypyridin-4-yl)propoxy]pyridine at 10 mg/kg, po after 0.5 hrs; assay type: ADME, organism-based, Cavia porcellus; design: dose 10 mg/kg, route oral; conditions: in vivo
[14] = Drug level in ovalbumin-sensitized guinea pig plasma treated with [14C]-2-(3-chlorophenoxy)-3-[3-(3-hydroxypyridin-4-yl)propoxy]pyridine at 10 mg/kg, po after 4 hrs; assay type: ADME, organism-based, Cavia porcellus; design: dose 10 mg/kg, route oral; conditions: in vivo
[15] = Inhibition of Hartley guinea pig PDE4 assessed as hydrolization by radioisotope method; design: species or system Cavia porcellus
[16] = system: Cavia porcellus; experiment: Induction of bronchodilation in ovalbumin-sensitized guinea pig at 10 mg/kg, po administered 4 hrs prior to ovalbumin challenge measured for 20 mins relative to vehicle-treated control; assay type: functional
[17] = system: Mustela putorius furo; experiment: Toxicity in Marshall ferret assessed as vomiting at 10 mg/kg, po after 2 hrs; assay type: organism-based; design: dose 10 mg/kg, route oral; conditions: in vivo
[18] = system: Mustela putorius furo; experiment: Toxicity in Marshall ferret assessed as vomiting at 1 mg/kg, po after 2 hrs; assay type: organism-based; design: dose 1 mg/kg, route oral; conditions: in vivo
[19] = Drug level in ovalbumin-sensitized guinea pig trachea assessed as radioactivity at 10 mg/kg, po after 0.5 hrs; assay type: ADME, organism-based, Cavia porcellus; design: dose 10 mg/kg, route oral; conditions: in vivo
[20] = species: Cavia porcellus; experiment: Inhibition of immediate asthmatic response in ovalbumin-sensitized guinea pig; assay type: functional
[21] = system: Mustela putorius furo; experiment: Toxicity in Marshall ferret assessed as vomiting at 300 mg/kg, po after 2 hrs; assay type: organism-based; design: dose 300 mg/kg, route oral; conditions: in vivo
[22] = Drug level in ovalbumin-sensitized guinea pig brain assessed as radioactivity at 10 mg/kg, po after 0.5 hrs; assay type: ADME, organism-based, Cavia porcellus; design: dose 10 mg/kg, route oral; conditions: in vivo
[23] = species: Cavia porcellus; experiment: Inhibition of late asthmatic response in ovalbumin-sensitized guinea pig; assay type: functional
[24] = Drug level in ovalbumin-sensitized guinea pig plasma assessed as radioactivity at 10 mg/kg, po after 2 hrs; assay type: ADME, organism-based, Cavia porcellus; design: dose 10 mg/kg, route oral; conditions: in vivo
[25] = Drug level in ovalbumin-sensitized guinea pig trachea assessed as radioactivity at 10 mg/kg, po after 2 hrs; assay type: ADME, organism-based, Cavia porcellus; design: dose 10 mg/kg, route oral; conditions: in vivo
[26] = Drug level in ovalbumin-sensitized guinea pig plasma assessed as radioactivity at 10 mg/kg, po after 4 hrs; assay type: ADME, organism-based, Cavia porcellus; design: dose 10 mg/kg, route oral; conditions: in vivo
[27] = Drug level in ovalbumin-sensitized guinea pig trachea assessed as radioactivity at 10 mg/kg, po after 4 hrs; assay type: ADME, organism-based, Cavia porcellus; design: dose 10 mg/kg, route oral; conditions: in vivo
[28] = Drug level in ovalbumin-sensitized guinea pig plasma assessed as radioactivity at 10 mg/kg, po after 0.5 hrs; assay type: ADME, organism-based, Cavia porcellus; design: dose 10 mg/kg, route oral; conditions: in vivo
[29] = Drug level in ovalbumin-sensitized guinea pig brain assessed as radioactivity at 10 mg/kg, po after 4 hrs; assay type: ADME, organism-based, Cavia porcellus; design: dose 10 mg/kg, route oral; conditions: in vivo
[30] = Drug level in ovalbumin-sensitized guinea pig lung assessed as radioactivity at 10 mg/kg, po after 2 hrs; assay type: ADME, organism-based, Cavia porcellus; design: dose 10 mg/kg, route oral; conditions: in vivo
[31] = Drug level in ovalbumin-sensitized guinea pig lung assessed as radioactivity at 10 mg/kg, po after 4 hrs; assay type: ADME, organism-based, Cavia porcellus; design: dose 10 mg/kg, route oral; conditions: in vivo
[32] = Inhibition of bovine PDE3; design: species or system Bos taurus
[33] = biological target: Phosphodiesterase 4 (Homo sapiens, UniProt P27815+Q08499+Q07343+Q08493); experiment: Inhibition of human PDE4; assay type: protein assay
[34] = Drug level in ovalbumin-sensitized guinea pig lung assessed as radioactivity at 10 mg/kg, po after 0.5 hrs; assay type: ADME, organism-based, Cavia porcellus; design: dose 10 mg/kg, route oral; conditions: in vivo
[35] = Drug level in ovalbumin-sensitized guinea pig brain assessed as radioactivity at 10 mg/kg, po after 2 hrs; assay type: ADME, organism-based, Cavia porcellus; design: dose 10 mg/kg, route oral; conditions: in vivo

inhibition [1]: 89%
SMILES: Brc1cccc(Cc2ncccc2OCCCc2ccncc2)c1
inhibition in vivo at 10 mg/kg [2]: 43% | Activity [3]: 63%

inhibition [1]: 6%
SMILES: Oc1cnccc1CCCOc1cccnc1Oc1cc(Cl)cc(Cl)c1

inhibition [1]: 46%
SMILES: Oc1cnccc1CCCOc1cccnc1Oc1ccc(Cl)cc1

inhibition [1]: 80%
SMILES: Brc1cccc(Sc2ncccc2OCCCc2ccncc2)c1
inhibition in vivo at 10 mg/kg [2]: 50% | Activity [3]: 77% | Activity [4]: Toxic | Activity [5]: Dose-dependent effect

inhibition [1]: 27%
SMILES: O=C(c1cccc(Br)c1)c1ncccc1OCCCc1ccncc1

IC50 [15]: 837 nM
SMILES: O=S(=O)(O)Oc1cnccc1CCCOc1cccnc1Oc1cccc(Cl)c1
Drug uptake [6]: 79.9 ngequiv/g | Cp [7]: 43.8 ngequiv/ml | Drug uptake [8]: 44 ngequiv/g | Drug uptake [9]: 29.2 ngequiv/g | Drug uptake [10]: 78.9 ngequiv/g | Cp [11]: 219.2 ngequiv/ml | Drug uptake [12]: 34.4 ngequiv/g | Drug uptake [13]: 17.2 ngequiv/g | Cp [14]: 194.4 ngequiv/ml

inhibition [1]: 87%
SMILES: Oc1cnccc1CCCOc1cccnc1Cc1cccc(Br)c1
inhibition in vivo at 10 mg/kg [2]: 44% | Activity [3]: 13%

inhibition [1]: 30%
SMILES: Oc1cnccc1CCCOc1cccnc1Oc1ccccc1Cl

inhibition [1]: 51%
SMILES: Brc1cccc(Nc2ncccc2OCCCc2ccncc2)c1

inhibition [1]: 77%
SMILES: Oc1cnccc1CCCOc1cccnc1Oc1cccc(Br)c1
Activity [16]: 12% | inhibition in vivo at 10 mg/kg [2]: 50% | Activity [3]: 70% | Activity [4]: Non-toxic

inhibition [1]: 66%
SMILES: Oc1cnccc1CCCOc1cccnc1Sc1cccc(Br)c1
inhibition in vivo at 10 mg/kg [2]: 33% | Activity [3]: 8%

inhibition [1]: 54%
SMILES: COc1ccc(C2CNC(=O)C2)cc1OC1CCCC1 (centres undefined) [ROLIPRAM]
Activity [16]: 13% | Activity [17]: Toxic | Activity [3]: 50% | Activity [18]: Non-toxic | Activity [5]: Dose-dependent effect

inhibition [1]: 80%
SMILES: Brc1cccc(Oc2ncccc2OCCCc2ccncc2)c1
inhibition in vivo at 10 mg/kg [2]: 23% | Activity [3]: 49%

inhibition [1]: 75% | IC50 [15]: 38 nM | IC50 [32]: > 30 µM | IC50 [33]: 33 nM
SMILES: Oc1cnccc1CCCOc1cccnc1Oc1cccc(Cl)c1
Drug uptake [6]: 7.7 ngequiv/g | Drug uptake [19]: 142.1 ngequiv/g | inhibition (INH) [20]: 45% | Activity [16]: 45% | Activity [17]: Non-toxic | Cp [7]: 1.7 ngequiv/ml | Activity [21]: Non-toxic | Drug uptake [22]: 31.9 ngequiv/g | Drug uptake [9]: 21 ngequiv/g | inhibition (INH) [23]: 40% | Cp [24]: 452.8 ngequiv/ml | Drug uptake [25]: 85.1 ngequiv/g | Cp [26]: 346.2 ngequiv/ml | Activity [3]: 55% | Drug uptake [27]: 90.1 ngequiv/g | Cp [28]: 387.6 ngequiv/ml | Drug uptake [10]: 12.8 ngequiv/g | Drug uptake [13]: 14.4 ngequiv/g | Drug uptake [29]: 14.5 ngequiv/g | Activity [4]: Non-toxic | Drug uptake [30]: 232.9 ngequiv/g | Drug uptake [31]: 178.7 ngequiv/g | Drug uptake [34]: 251.2 ngequiv/g | Drug uptake [35]: 17.7 ngequiv/g

inhibition [1]: 74%
SMILES: Oc1cnccc1CCCOc1cccnc1Oc1cccc(F)c1
Activity [16]: 9% | Activity [3]: 55%

IC50 [15]: 11500 nM
SMILES: O=C(O)[C@H]1O[C@@H](Oc2cnccc2CCCOc2cccnc2Oc2cccc(Cl)c2)[C@H](O)[C@@H](O)[C@@H]1O
Drug uptake [6]: 33.8 ngequiv/g | Cp [7]: 130.4 ngequiv/ml | Drug uptake [8]: 28.1 ngequiv/g | Drug uptake [9]: 46.5 ngequiv/g | Drug uptake [10]: 59.5 ngequiv/g | Cp [11]: 130.8 ngequiv/ml | Drug uptake [12]: 33.7 ngequiv/g | Drug uptake [13]: 53.6 ngequiv/g | Cp [14]: 79.3 ngequiv/ml
